The source of these data is PubChem BioAssay (NCI).

SMILES strings stand for the structures.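 Step 1: Grow cells in 96-well plates. Step 2: Expose to compound for 48 hours at 5 concentrations. Step 3: Interpolate endpoints linearly; if unreached, use highest concentration. GI50 is the concentration that inhibits growth by half. Definition used: TGI = concentration required for complete inhibition of growth.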 Bounds are passed on as bounds.

Test systems include OVCAR-4 ovarian; ACHN renal; EKVX NSCLC; MALME-3M melanoma; P388/ADR leukemia; SF-539 CNS; U251 CNS; UO-31 renal.
What all share (test): NCI tumour cell line growth inhibition, 48 h

In the test on OVCAR-4 ovarian, `COC(=O)C1c2cc3c(c(O)c2C(O)CC1(C)O)C(=O)c1c(O)cc2c(c1C3=O)OC1OC2(C)C(O)C(N(C)C)C1O` (stereo not given) yielded a TGI above 100000 nM.
In the case of `CC1OC(=O)C(C(C)C)NC(=O)C(C(C)C)OC(=O)C(C(C)C)NC(=O)C(C)OC(=O)C(C(C)C)NC(=O)C(C(C)C)OC(=O)C(C(C)C)NC(=O)C(C)OC(=O)C(C(C)C)NC(=O)C(C(C)C)OC(=O)C(C(C)C)NC1=O` (stereo not given), the TGI is below 0.1 nM in the test on ACHN renal; 3630 nM in the test with MALME-3M melanoma; 32.5 nM in the test with P388/ADR leukemia; 328 nM with SF-539 CNS; 1050 nM in the test on U251 CNS; 54.1 nM in the test on UO-31 renal. The GI50 in the test with EKVX NSCLC was below 0.1 nM; in the test on SF-539 CNS, 0.484 nM; in the test on U251 CNS, below 0.1 nM.
